Laboratory results taken from patent publication US11576914B2, “Drug for treating or preventing disorder caused by TGF-β signaling, and application thereof” (THE DOSHISHA, priority 2017, dated 2023).

Key:
[1] = system: human corneal endothelial cells; assay: Cell Titer-Glo Luminescent Cell Viability Assay in the presence of AKP-001; format: cell-based; conditions: 24 hours
Procedure: Human corneal endothelial cells were peeled off with Descemet's membranes from research-purpose donor corneas, followed by culturing. For the medium, the following was used: OptiMEM-I (invitrogen, 31985-088)+8% FBS (Thermo, SH30084.03)+5 ng/mL epidermal growth factor (invitrogen, PHG0311)+20 μg/mL L-ascorbic acid 2-sesquimagnesium phosphate hydrate (SIGMA, A8960)+200 mg/L calcium chloride dihydrate (SIGMA, C7902)+0.08% chondroitin sulfate (Wako Pure Chemical Industries, Ltd., 032-14613)+50 μg/mL gentamicin (invitrogen, 15710-064)+1 μM SB431542 (WAKO, 192-16541)+10 μM SB203580 (Cayman, 13067). Culture dishes pre-coated with laminin-511E8 (Nippi, 381-07363) were used.
Cultured human corneal endothelial cells were seeded at a rate of 1×10^4 per well in a 96-well plate coated with laminin-511E8, and the cells were cultured until reaching confluence at 37° C. (5% CO2). For the medium, used was OptiMEM-I (invitrogen, 31985-088)+8% FBS (Thermo, SH30084.03)+5 ng/mL epidermal growth factor (invitrogen, PHG0311)+20 μg/mL L-ascorbic acid 2-sesquimagnesium phosphate hydrate (SIGMA, A8960)+200 mg/L calcium chloride dihydrate (SIGMA, C7902)+0.08% chondroitin sulfate (Wako Pure Chemical Industries, Ltd., 032-14613)+50 μg/mL gentamicin (invitrogen, 15710-064)+1 μM SB431542 (WAKO, 192-16541)+10 μM SB203580 (Cayman, 13067).
Upon reaching confluence, the culturing was further conducted for one more week with OptiMEM-I (invitrogen, 31985-088)+8% FBS (Thermo, SH30084.03)+20 μg/mL+200 mg/L calcium chloride dihydrate (SIGMA, C7902)+0.08% chondroitin sulfate (Wako Pure Chemical Industries, Ltd., 032-14613)+50 μg/mL gentamicin (invitrogen, 15710-064). […]
The medium was discarded to 50 μl per well, and Cell Titer-Glo Luminescent Cell Viability Assay solution (Promega, G7572) was added to the 50 μl/well to reach 1:1 with the medium. […] After standing, 50 μl was transferred to an Assay plate (Corning, 3912, Assay plate well, white polystyrene), and the […] was measured using GloMax-Multi Detection System (Promega, E7051).

[2] = system: cleaved caspase-3 and PARP; assay: Western blot of caspase 3 and PARP in iFECD stimulated with TGF-β2; format: cell-based, human; conditions: 0.1 μM
Procedure: The medium was removed from the culture dish of cultured disease model cells, and the disease model cells were supplemented with 1×PBS (−) that was preheated to 37° C., followed by washing. This operation was repeated twice. The cells were supplemented with 1×PBS (−) again and incubated for 5 minutes at 37° C. (5% CO2). After the PBS (−) was removed, the cells were supplemented with 0.05% Trypsin-EDTA (nacalai tesque, 32778-34) and incubated for 5 minutes at 37° C. (5% CO2). The cells were then suspended in a medium, and collected by centrifugation at 1500 rpm for 3 minutes. Medium: DMEM (nacalai tesque, 08456-36)+10% FBS (Biowest, S1820-500)+1% P/S (nacalai tesque, 26252-94).
The Fuchs' endothelial corneal dystrophy patient-derived immortalized corneal endothelial cells were seeded in a 6-well plate at a rate of 1.5×10^5 cells per well and cultured at 37° C. (5% CO2) for 48 hours. DMEM+10% FBS+1% P/S was used as the medium. After 48 hours, the medium was removed, and SB203580 (Cayman, 13067), PH-797804 (Selleck Chemicals, S2726), VX-702 (Selleck Chemicals, 56005) and AKP-001 were added to DMEM+2% FBS+1% P/S so that all the final concentration was 0.1 μM, followed by culturing as 24-hour pretreatment.
After 24 hours, the medium was removed, and SB203580 (Cayman, 13067), PH-797804 (Selleck Chemicals, S2726), VX-702 (Selleck Chemicals, 56005) and AKP-001, together with 100 ng/ml recombinant human TGF-β2 (R & D systems, RND302-B2-002), were added to DMEM+2% FBS+1% P/S so that all the final concentration was 0.1 μM, followed by culturing for 24 hours. After 24 hours, the protein was subjected to Western blotting according to the following procedure to evaluate the effect on apoptosis.
The medium was collected on ice to collect free and dead cells as well. The solution obtained from washing the cells twice with 1×PBS (−) was also collected, followed by centrifugation of 800 g at 4° C. for 5 minutes. The supernatant was discarded to obtain precipitates. The washed cells were supplemented with a protein extraction buffer (RIPA; 50 mM Tris-HCl (pH 7.4), 150 mM NaCl, 1 mM EDTA, 0.1% SDS, 0.5% DOC, 1% NP-40) on ice to extract proteins. The precipitates from centrifuging the free and dead cells were also subsequently suspended together for extraction. The collected solution was pulverized three times for 30 seconds in cold water with a sonication device (BIORUPTOR, TOSHO DENKI) and centrifuged for 10 min at 4° C. at 15000 rpm to collect the supernatant of proteins.
Eight μg of the extracted protein was separated by SDS-PAGE and transferred onto a nitrocellulose membrane. A rabbit anti-Caspase 3 antibody (Cell Signaling, 9662), rabbit anti-PARP antibody (Cell Signaling, 9542), and mouse anti-GAPDH antibody (MBL, M171-3) were used as the primary antibodies. A peroxidase-labeled anti-rabbit antibody and anti-mouse antibody (GE Healthcare Biosciences, NA931V, NA934V) were used as the secondary antibodies. For the primary antibodies, the rabbit anti-PARP antibody was diluted 1000-fold, the rabbit anti-Caspase 3 antibody was diluted 1000-fold, and the mouse anti-GAPDH antibody was diluted 3000-fold. Further, the secondary antibody was diluted 5000-fold. Chemi Lumi ONE Ultra (Nacalai Tesque, 11644-40) was used for detection. The detected band strength was analyzed with a lumino image analyzer LAS-4000 mini (Fuji Film) and ImageQuant™ software (GE Healthcare).

O=C(Cc1c(F)cccc1Cl)Nc1onc(-c2ccc(F)cc2)c1-c1ccncn1 [AKP-001, 5-[(2-chloro-6-fluorophenyl)acetylamino]-3-(4-fluorophenyl)-4-(4-pyrimidinyl)isoxazole]
cell damage (cell viability) ([1]; 0.1 μM, 0.3 μM, 1 μM, 3 μM or 10 μM): no cell damage was observed
number of the cells (cell viability) ([1]; 30 μM and 100 μM): significantly reduced the number of the cells
concentrations at which less toxic to the cells [1]: less than 30 μM
cleaved caspase-3 and PARP expression ([2]; 100 ng/ml TGF-β2, 24 hours): hardly any
caspase activity ([2]; TGF-β2): inhibited
